Test results from patent US20240026461A1, “BCL10 MUTATIONS AS BIOMARKERS FOR TARGETED THERAPY IN B CELL LYMPHOMAS” (priority 2022, published 2024).

Tests used:
OCI-LY10^R58Q = assay: Growth inhibition assay (CellTiter Glo), OCI-Ly10 cells expressing BCL10 R58Q; assay type: cell-based; conditions: Homo sapiens, 96 h, read-out: IC50, growth inhibition, MALT1 inhibitors
Experimental: (§1) DLBCL cell lines were cultured in exponential condition and the cell growth was determined by CellTiter Glo (Promega). 3000-5000 cells were seeded and cultured in each well of 384 well plate for 96 h and treated with compounds every 48 h. Luminescence was read at the endpoint with the Synergy NEO microplate reader (BioTek). The value of compound treated cells was normalized to their vehicle treated controls and then used to calculate IC50 in GraphPad Prism (RRID:SCR_002798).
(§2) Given the distinct functional profiles, CARD11 dependencies, and MALT1 activation effects of the BCL10 CARD and truncation mutants, the inventors designed experiments to evaluate whether, and to what extent, these mutant BCL10 proteins might confer BTK inhibitor resistance. Isogenic ABC-DLBCL cells expressing BCL10WT, BCL10^R58Q and BCL10^E140X proteins were treated with escalating doses of three chemically distinct covalent BTK inhibitors: ibrutinib, acalabrutinib, or zanubrutinib. The cellular proliferation rates of the treated cells were measured using an ATP fluorescence assay after 96 hours of drug exposure.
(§3) Isogenic BCL10^WT, BCL10^R58Q and BCL10^E140X ABC-DLBCLs were exposed to increasing concentrations of each of these compounds for 96 hours.

[1] = test system: isogenic ABC-DLBCL cells expressing BCL10^WT, BCL10^R58Q and BCL10^E140X; assay: Growth inhibition of isogenic ABC-DLBCL cells, response described in words; assay type: cell-based, human; conditions: 96 hours
Experimental: as §1, §2, §3

[2] = test system: IL-10 secretion by OCI-Ly3 ABC-DLBCL cells; assay: IL-10 secretion assay using OCI-Ly3 cells (MSD); assay type: cell-based; conditions: Homo sapiens, 24 h, read-out: IC50, IL10 secretion
Experimental: (§4) FIG. 21A. Chemical structure of JNJ-67690246. FIG. 21B. IC50 values for JNJ-67690246 in biochemical enzymatic and cellular cytokine secretion assays. MALT1 proteolytic IC50: purified recombinant MALT1 was preincubated for 50 min at RT with JNJ-67690246, substrate Ac-LRSR-AMC was then incubated for 4 h. MALT1 proteolytic activity was determined by measuring the increase of AMC fluorescence. […] FIG. 21C. Table for IC50 values of three different MALT1 inhibitors measured in HBL1 and OCI-Ly10 cells expressing WT and mutant BCL10. D-F. MALT1 activity measured in OCI-Ly10 GloSensor reporter cells treated with MALT1 inhibitors. OCI-Ly10 MALT1 GloSensor cells were stably expressing wildtype and mutant BCL10, then treated with MALT1 inhibitors of different range (10-0.3 uM). FIG. 21G-I. NF-κB activity measured in NF-κB-RE-luciferase reporter cell lines treated with MALT1 inhibitors. HBL1 NF-κB reporter cells lines were stably expressing wildtype and mutant BCL10, and then treated with MALT1 inhibitors of different range (10-0.3 uM). NF-xB activity was performed 24 h after treatment. Error bars indicate SEM with 4 biological replicates. p<0.05; “p<0.01; “<0.001; ****p<0.0001; ns, not significant.
(§5) Secretion of the IL-6 and IL-10 cytokines by OCI-Ly3 ABC-DLBCL cells was measured using a Mesoscale assay (MSD). MALT1 inhibition results in a decrease of IL-6/10 secretion. […] Plates were read on a SECTOR imager.

[3] = test system: IL-6 secretion by OCI-Ly3 ABC-DLBCL cells; assay: IL-6 secretion assay using OCI-Ly3 cells (MSD); assay type: cell-based; conditions: Homo sapiens, 24 h, read-out: IC50, IL6 secretion
Experimental: as §4, §5

HBL1^E140X = assay: Growth inhibition assay (CellTiter Glo), HBL1 cells expressing BCL10 E140X; assay type: cell-based; conditions: Homo sapiens, 96 h, read-out: IC50, growth inhibition, MALT1 inhibitors
Experimental: as §1, §2, §3

HBL1^R58Q = assay: Growth inhibition assay (CellTiter Glo), HBL1 cells expressing BCL10 R58Q; assay type: cell-based; conditions: Homo sapiens, 96 h, read-out: IC50, growth inhibition, MALT1 inhibitors
Experimental: as §1, §2, §3

OCI-LY10^E140X = assay: Growth inhibition assay (CellTiter Glo), OCI-Ly10 cells expressing BCL10 E140X; assay type: cell-based; conditions: Homo sapiens, 96 h, read-out: IC50, growth inhibition, MALT1 inhibitors
Experimental: as §1, §2, §3

[4] = biological target: T1, full-length MALT1 protein (Strep-MALT1(1-824)-His) (Homo sapiens, UniProt Q9UDY8); assay: Biochemical evaluation of MALT1 protease activity (Ac-LRSR-AMC cleavage); conditions: preincubated 50 min at RT, substrate Ac-LRSR-AMC 4 h; read-out: IC50, MALT1 enzyme
T1 construct: full-length MALT1 protein (Strep-MALT1(1-824)-His); Strep (N); His (C); made in house; host or cells: baculovirus-infected insect cells
Experimental: FIG. 21A. Chemical structure of JNJ-67690246. FIG. 21B. IC50 values for JNJ-67690246 in biochemical enzymatic and cellular cytokine secretion assays. MALT1 proteolytic IC50: purified recombinant MALT1 was preincubated for 50 min at RT with JNJ-67690246, substrate Ac-LRSR-AMC was then incubated for 4 h. MALT1 proteolytic activity was determined by measuring the increase of AMC fluorescence. […] FIG. 21C. Table for IC50 values of three different MALT1 inhibitors measured in HBL1 and OCI-Ly10 cells expressing WT and mutant BCL10. D-F. MALT1 activity measured in OCI-Ly10 GloSensor reporter cells treated with MALT1 inhibitors. […] FIG. 21G-I. NF-κB activity measured in NF-κB-RE-luciferase reporter cell lines treated with MALT1 inhibitors. […]
MALT1 protease activity was assessed in vitro using full-length MALT1 protein (Strep-MALT1(1-824)-His) purified from baculovirus-infected insect cells. […] Cleavage of AMC from the arginine residue results in an increase in coumarin fluorescence measured at 460 nm (excitation 355 nm). […] Substrate was added and the reaction was then incubated for 4 h at RT, after which fluorescence was measured.
MALT1 protease activity was assessed in vitro using full-length MALT1 protein (Strep-MALT1 (1-824)-His) purified from baculovirus-infected insect cells. […] Cleavage of AMC from the arginine residue results in an increase in coumarin fluorescence measured at 460 nm (excitation 355 nm). […]

HBL1^WT = assay: Growth inhibition assay (CellTiter Glo), HBL1 cells expressing BCL10 WT; assay type: cell-based; conditions: Homo sapiens, 96 h, read-out: IC50, growth inhibition, MALT1 inhibitors
Experimental: as §1, §2, §3

T1 sequence (Q9UDY8 whole entry): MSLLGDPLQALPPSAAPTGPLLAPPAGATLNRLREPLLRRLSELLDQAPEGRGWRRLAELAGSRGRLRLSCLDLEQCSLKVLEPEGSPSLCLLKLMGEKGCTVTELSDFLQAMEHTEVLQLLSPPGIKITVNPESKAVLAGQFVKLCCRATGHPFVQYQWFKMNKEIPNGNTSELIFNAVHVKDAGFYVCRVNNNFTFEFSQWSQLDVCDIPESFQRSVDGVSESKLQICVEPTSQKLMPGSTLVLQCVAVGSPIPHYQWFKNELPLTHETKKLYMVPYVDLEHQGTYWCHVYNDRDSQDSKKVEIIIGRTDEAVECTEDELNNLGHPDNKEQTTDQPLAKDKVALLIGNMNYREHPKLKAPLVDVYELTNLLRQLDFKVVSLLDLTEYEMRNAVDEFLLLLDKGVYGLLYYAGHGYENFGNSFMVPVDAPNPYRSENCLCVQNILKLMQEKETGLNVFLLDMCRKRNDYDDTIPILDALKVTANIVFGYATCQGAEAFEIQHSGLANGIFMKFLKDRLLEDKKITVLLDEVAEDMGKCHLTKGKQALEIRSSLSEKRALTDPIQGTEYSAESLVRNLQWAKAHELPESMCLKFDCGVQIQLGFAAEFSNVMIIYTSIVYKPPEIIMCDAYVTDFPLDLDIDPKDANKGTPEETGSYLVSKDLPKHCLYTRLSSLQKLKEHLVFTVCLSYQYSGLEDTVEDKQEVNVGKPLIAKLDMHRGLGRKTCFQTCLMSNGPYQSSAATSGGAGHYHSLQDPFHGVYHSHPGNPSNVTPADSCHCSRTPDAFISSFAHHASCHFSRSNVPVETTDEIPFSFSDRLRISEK

In the case of Cc1nc(-n2nccn2)c(Cl)cc1NC(=O)c1cnn(-c2cccc3c(=O)[nH]ccc23)c1C(F)(F)F [JNJ-67690246], the IC50 (OCI-LY10^R58Q) is reported as 780 ± 200 nM, the “growth response in words” value ([1]; BCL10^R58Q ABC-DLBCL cells) is reported as “generally sensitive” and the “growth response in words” value ([1]; BCL10^WT ABC-DLBCL cells) is reported as “generally sensitive”. For the same molecule, the IC50 [2] was 60 nM, the IC50 [3] was 60 nM and the IC50 (HBL1^E140X) was 150 ± 20 nM. The IC50 (HBL1^R58Q) was 5770 ± 3020 nM, the IC50 (OCI-LY10^E140X) was 270 ± 20 nM and the IC50 [4] was 15 nM. For the same molecule, the IC50 (HBL1^WT) was 1580 ± 500 nM.
